# Laboratory results published in paper PMC8584424, “Synthesis of Novel 2-Thiouracil-5-Sulfonamide Derivatives as Potent Inducers of Cell Cycle Arrest and CDK2A Inhibition Supported by Molecular Docking” (International Journal of Molecular Sciences, 2021).
# Assays:
# HT-29 cells [1] = assay: Cell cycle analysis (PI flow cytometry), HT-29; format: cell-based, human; details: IC50 of 6e, 48 h
# Procedure: (§1) To evaluate cancer cells distribution through different cell cycle stages, the DNA content of propidium iodide-stained nuclei was assessed by flow cytometry as depicted earlier. […] Then, the cells were washed twice with ice-cold phosphate-buffered saline (PBS) and gathered by centrifugation. The cell pellets were mixed with 75% ethanol (−20 °C). Afterward, cells were stained with the propidium iodide flow cytometry kit (ab139418, Abcam, Cambridge, MA, USA), according to the manufacturer’s instructions. Cell cycle distribution was established by FACS Calibur flow cytometer (BD Biosciences, San Jose, CA, USA). Cell cycle distribution was measured using […] software (Becton Dickinson Immunocytometry Systems, San Jose, CA, USA).
# p21 = assay: Western blot analysis for p21 in MCF-7 cells; format: cell-based, human; details: 6e at IC50 (1.67 μM), 48 h, relative to actin
# Procedure: (§2) Whole-cell protein lysates were prepared according to a standard protocol using RIPA buffer (Cell Signaling, Danvers, MA, USA). Total protein concentrations were determined in the supernatant using the Bradford method. Equal amounts (20 µg) of protein samples were mixed and boiled with SDS Loading buffer for 10 min, allowed to cool on ice and then loaded into SDS-polyacrylamide gel and separated by Cleaver electrophoresis unit (Cleaver, UK), transferred onto polyvinylidene fluoride (PVDF) membranes (BioRad, USA) for 30 min using a Semi-dry Electroblotter (Biorad, USA) at 2.5 A and 25 V for 30 min. Membranes were blocked with 5% non-fat dry milk in TBS-T and incubated overnight with the primary antibody: anti-p21, anti-p27 antibody, or anti-β-actin antibody (1:1000; Cell Signaling Technology, Inc., Danvers, MA, USA), then incubated with secondary HRP-linked antibody (1:5000). Development was done using Pierce ECL2 chemiluminescent and chemifluorescent substrate (Perkin Elmer, Waltham, MA, USA). The chemiluminescent signals were captured using a CCD camera-based imager (Chemi Doc imager, Biorad, USA), and the bands’ intensities were then measured relative to actin by ImageLab (Biorad).
# A-2780 cells [2] = assay: Cell cycle analysis (PI flow cytometry), A-2780; format: cell-based, human; details: IC50 of 6e, 48 h
# Procedure: as §1
# [3] = system: HT-29 (colon) cancer cells; assay: In vitro cytotoxicity assessment (MTT), HT-29; format: cell-based, human
# Source text: (§3) Four cancer cell lines were used in this study viz ovarian (A-2780), colon (HT-29), breast (MCF-7), and liver (HepG2) cancer cells. They were provided by the National Institute of Cancer, Cairo University (Cairo, Egypt). The selection of those cancer cells was encouraged by the stated anticancer activity of a number 5-Fluorouracil hybrids against the mentioned cancer cells and based on the reported cytotoxic activity of a large range of bioactive cores containing sulfonamide moiety.
# (§4) Cells were seeded in 96 well plates at a density of 2 × 10^4 and incubated to allow the attachment for 24 h. Then the cells were treated at different concentrations (2.5–10 μM) with 5-FU as a positive control or the synthesized compounds for 48h. 0.1% DMSO was used as a negative control. Afterward, cells were washed using PBS and the viability of cells was evaluated utilizing in vitro toxicology assay kit, MTT Based (Stock No. TOX-1, Sigma-Aldrich, Saint Louis, Missouri, USA), per the manufacturer’s instructions. The plates were read at 570 nm. IC50 was calculated using a sigmoidal dose-response curve (GraphPad Prism version 5 for Windows (GraphPad Inc., USA)). Data are presented as the mean of the three individual experiments. The degree of selectivity of the active target compounds relative to WI38 normal cell lines is expressed as previously described. Selectivity index (SI) = IC50 of a pure compound in a normal cell line/IC50 of the same pure compound in a cancerous cell line.
# WI38 normal cells = assay: In vitro cytotoxicity assessment (MTT), normal cells; format: cell-based; details: WI-38; normal human cell line WI38, MTT
# Procedure: as §4, with “Then the cells were treated at different concentrations (2.5–10 μM) with 5-FU as a positive control or the synthesized compounds for 48h.” left out
# HT-29 cells [4] = assay: Annexin V-FITC/PI apoptosis assay, HT-29; format: cell-based, human; details: 6e at its IC50, 48 h
# Procedure: (§5) For the apoptosis assay, the BioVision annexin V-FITC apoptosis detection kit (Cat No.: K101; BioVision, Inc., Milpitas, CA, USA) was used, per the manufacturer’s instructions. […] The cells were resuspended in 500 μL of Annexin V–binding buffer, followed by the addition of 5μL of Annexin V–FITC, then incubated in the dark for 10 min at room temperature. Analysis was performed using a FACS Calibur flow cytometer (BD Biosciences, San Jose, CA, USA), using […] software (Becton Dickinson Immunocytometry Systems, San Jose, CA, USA).
# MCF-7 cells [5] = assay: Cell cycle analysis (PI flow cytometry), MCF-7; format: cell-based, human; details: IC50 of 6e, 48 h
# Procedure: as §1
# [6] = system: A-2780 (ovarian) cancer cells; assay: In vitro cytotoxicity assessment (MTT), A-2780; format: cell-based, human
# Source text: as §3, §4
# HepG2 cells [7] = assay: Annexin V-FITC/PI apoptosis assay, HepG2; format: cell-based, human; details: 6e at its IC50, 48 h
# Procedure: as §5
# MCF-7 cells [8] = assay: Annexin V-FITC/PI apoptosis assay, MCF-7; format: cell-based, human; details: 6e at its IC50, 48 h
# Procedure: as §5
# HepG2 cells [9] = assay: Cell cycle analysis (PI flow cytometry), HepG2; format: cell-based, human; details: IC50 of 6e, 48 h
# Procedure: as §1
# [10] = system: MCF-7 (breast) cancer cells; assay: In vitro cytotoxicity assessment (MTT), MCF-7; format: cell-based, human
# Source text: as §3, §4
# [11] = system: HepG2 (liver) cancer cells; assay: In vitro cytotoxicity assessment (MTT), HepG2; format: cell-based, human
# Source text: as §3, §4
# A-2780 cells [12] = assay: Annexin V-FITC/PI apoptosis assay, A-2780; format: cell-based, human; details: 6e at its IC50, 48 h
# Procedure: as §5
# p27 = assay: Western blot analysis for p27 in MCF-7 cells; format: cell-based, human; details: 6e at IC50 (1.67 μM), 48 h, relative to actin
# Procedure: as §2
# CDK2/CyclinA2 = molecular target: T1, CDK2/CyclinA2 (Homo sapiens, UniProt P24941); assay: In vitro inhibitory screening of CDK2 (CDK2 Assay kit, Kinase-Glo MAX); format: biochemical; details: CDK2/CyclinA2, 30 °C 45 min; mean of three experiments ± SD; read-out: CDK2 Protein Kinase (IC50 in µM)
# T1 construct: purchased #79599
# Procedure: To measure CDK2/CyclinA2 activity, the CDK2 Assay kit #79599 was used for screening and profiling applications, together with Kinase-Glo® MAX (Promega#V6071) as a detection reagent. […] Briefly, 25 μL of the master mixture containing 6 μL Kinase assay buffer + 1 μL ATP + 5 μL CDK substrate peptide + 13 μL distilled water were added to each well. Later, 5 µL of inhibitor buffer only or diluted compound were added to the blank or test inhibitor wells, respectively. Then, 20μL of Kinase assay buffer was added to blank wells. The reaction was started by the addition of 20 μL of CDK2/CyclinA2 enzyme to the wells of the test inhibitor. The final volume was 50 µL in all of the reactions. Incubation was at 30 °C for 45 min for all the enzymatic reactions. Finally, to each well, 50 μL of Kinase-Glo MAX reagent was added. The plate was incubated for 15 min at room temperature then, the luminescence signal was measured using a Bio Tek Synergy 2 microplate reader. Experiments were performed in triplicates.
structure (smiles),measurement,setting,value
"Cc1[nH]c(=S)[nH]c(=O)c1S(=O)(=O)Nc1cccc(Cl)c1Cl [Compound 6e, N-(2,3-Dichlorophenyl)-6-Methyl-4-Oxo-2-Thioxo-1,2,3,4-Tetrahydropyrimidine-5-Sulfonamide]",phase of cell growth arrest,HT-29 cells [1],S phase
same,"protein expression level of p21, increase compared to control",p21,about 2.6 fold
same,phase of cell growth arrest,A-2780 cells [2],G1/S phase
same,IC50,"[3]; Homo sapiens, HT-29, 48 h, MTT, mean of three experiments ± SD, NA: not active",1.75 ± 0.4 µM
same,SI (selectivity index) HT-29,[3]; IC50 in WI38 normal cells / IC50 in HT-29,34.40
same,IC50,WI38 normal cells,60.2 ± 1.77 µM
same,% Early Apoptosis,HT-29 cells [4],1.61%
same,% Late Apoptosis,HT-29 cells [4],26.24%
same,% Necrosis,HT-29 cells [4],14.51%
same,% Total,HT-29 cells [4],42.36%
same,phase of cell growth arrest,MCF-7 cells [5],S phase
same,IC50,"[6]; Homo sapiens, A2780, 48 h, MTT, mean of three experiments ± SD, NA: not active",2.52 ± 0.47 µM
same,SI (selectivity index) A-2780,[6]; IC50 in WI38 normal cells / IC50 in A-2780,23.91
same,% Early Apoptosis,HepG2 cells [7],0.84%
same,% Late Apoptosis,HepG2 cells [7],18.97%
same,% Necrosis,HepG2 cells [7],8.81%
same,% Total,HepG2 cells [7],28.62%
same,% Early Apoptosis,MCF-7 cells [8],3.82%
same,% Late Apoptosis,MCF-7 cells [8],23.71%
same,% Necrosis,MCF-7 cells [8],11.75%
same,% Total,MCF-7 cells [8],39.28%
same,phase of cell growth arrest,HepG2 cells [9],G2/M phase
same,IC50,"[10]; Homo sapiens, MCF7, 48 h, MTT, mean of three experiments ± SD, NA: not active",1.67 ± 0.31 µM
same,SI (selectivity index) MCF-7,[10]; IC50 in WI38 normal cells / IC50 in MCF-7,36.05
same,IC50,"[11]; Homo sapiens, HepG2, 48 h, MTT, mean of three experiments ± SD, NA: not active",2.02 ± 0.85 µM
same,SI (selectivity index) HepG2,[11]; IC50 in WI38 normal cells / IC50 in HepG2,29.80
same,% Early Apoptosis,A-2780 cells [12],2.38%
same,% Late Apoptosis,A-2780 cells [12],22.02%
same,% Necrosis,A-2780 cells [12],9.41%
same,% Total,A-2780 cells [12],33.81%
same,"protein expression level of p27, increase compared to control",p27,~2.2 fold
same,IC50,CDK2/CyclinA2,0.407 ± 0.021 µM
same,melting point,,326 to 328 °C
